# Molecular target: CDK12 complexed with Cyclin K (Homo sapiens (Human), UniProt Q9NYV4)
# Assay: CDK enzymatic assay (HTRF, LANCE Ultra kinase assay)
# Assay type: biochemical
# Conditions: 60 minutes pre-incubation, 1 mM ATP
# How it was run: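 GST-tagged human CDK12 co-expressed with full-length Cyclin K in baculovirus, pre-incubated 60 min with compound, then 1 mM ATP and 50 nM ULight-4E-BP1 peptide (final) in pH 7.5 HEPES buffer for 60-90 min at room temperature. EDTA/Eu-anti-phospho-4E-BP1 stop; 665/620 nm HTRF ratio normalized to DMSO and no-enzyme controls, IC50 from 3- or 4-parameter fit.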
# CDK12 complexed with Cyclin K, sequence (Q9NYV4 whole entry): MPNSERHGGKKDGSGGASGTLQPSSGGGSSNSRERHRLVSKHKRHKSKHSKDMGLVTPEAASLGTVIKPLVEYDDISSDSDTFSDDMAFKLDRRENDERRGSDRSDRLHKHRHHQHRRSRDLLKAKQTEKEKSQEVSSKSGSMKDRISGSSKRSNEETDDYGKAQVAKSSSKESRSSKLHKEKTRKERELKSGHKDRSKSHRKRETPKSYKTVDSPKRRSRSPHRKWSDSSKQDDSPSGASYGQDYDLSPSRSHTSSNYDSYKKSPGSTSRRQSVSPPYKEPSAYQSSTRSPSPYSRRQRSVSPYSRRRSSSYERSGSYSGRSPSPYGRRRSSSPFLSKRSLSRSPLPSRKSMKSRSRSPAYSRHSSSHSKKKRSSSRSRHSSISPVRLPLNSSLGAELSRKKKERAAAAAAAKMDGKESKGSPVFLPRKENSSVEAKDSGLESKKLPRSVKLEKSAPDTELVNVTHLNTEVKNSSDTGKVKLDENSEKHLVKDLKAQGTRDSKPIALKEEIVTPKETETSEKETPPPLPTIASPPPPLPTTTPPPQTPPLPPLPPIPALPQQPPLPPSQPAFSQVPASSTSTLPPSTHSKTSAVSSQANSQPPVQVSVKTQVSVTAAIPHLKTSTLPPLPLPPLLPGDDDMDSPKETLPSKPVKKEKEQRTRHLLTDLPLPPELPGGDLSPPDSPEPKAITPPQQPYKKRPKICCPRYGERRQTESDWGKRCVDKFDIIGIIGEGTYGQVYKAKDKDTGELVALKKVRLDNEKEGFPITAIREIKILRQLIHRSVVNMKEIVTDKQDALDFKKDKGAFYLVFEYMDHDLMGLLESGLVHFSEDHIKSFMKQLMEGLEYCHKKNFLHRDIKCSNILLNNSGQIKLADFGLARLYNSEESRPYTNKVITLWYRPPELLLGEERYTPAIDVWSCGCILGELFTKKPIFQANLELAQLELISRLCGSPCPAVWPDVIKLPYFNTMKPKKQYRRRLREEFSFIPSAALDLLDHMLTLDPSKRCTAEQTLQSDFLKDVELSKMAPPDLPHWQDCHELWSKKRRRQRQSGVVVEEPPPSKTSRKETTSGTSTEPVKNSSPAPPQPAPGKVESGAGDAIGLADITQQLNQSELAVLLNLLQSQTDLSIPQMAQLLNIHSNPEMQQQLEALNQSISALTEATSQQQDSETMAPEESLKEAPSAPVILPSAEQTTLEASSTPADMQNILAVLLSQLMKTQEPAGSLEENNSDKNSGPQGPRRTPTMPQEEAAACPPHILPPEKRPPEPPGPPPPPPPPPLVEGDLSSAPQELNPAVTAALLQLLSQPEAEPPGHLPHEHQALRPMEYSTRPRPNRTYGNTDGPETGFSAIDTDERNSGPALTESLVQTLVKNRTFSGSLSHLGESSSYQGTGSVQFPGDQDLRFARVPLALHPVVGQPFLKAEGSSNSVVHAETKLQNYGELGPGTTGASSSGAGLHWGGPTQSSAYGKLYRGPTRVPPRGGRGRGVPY
# CDK12 complexed with Cyclin K, sequence (O75909 whole entry partner): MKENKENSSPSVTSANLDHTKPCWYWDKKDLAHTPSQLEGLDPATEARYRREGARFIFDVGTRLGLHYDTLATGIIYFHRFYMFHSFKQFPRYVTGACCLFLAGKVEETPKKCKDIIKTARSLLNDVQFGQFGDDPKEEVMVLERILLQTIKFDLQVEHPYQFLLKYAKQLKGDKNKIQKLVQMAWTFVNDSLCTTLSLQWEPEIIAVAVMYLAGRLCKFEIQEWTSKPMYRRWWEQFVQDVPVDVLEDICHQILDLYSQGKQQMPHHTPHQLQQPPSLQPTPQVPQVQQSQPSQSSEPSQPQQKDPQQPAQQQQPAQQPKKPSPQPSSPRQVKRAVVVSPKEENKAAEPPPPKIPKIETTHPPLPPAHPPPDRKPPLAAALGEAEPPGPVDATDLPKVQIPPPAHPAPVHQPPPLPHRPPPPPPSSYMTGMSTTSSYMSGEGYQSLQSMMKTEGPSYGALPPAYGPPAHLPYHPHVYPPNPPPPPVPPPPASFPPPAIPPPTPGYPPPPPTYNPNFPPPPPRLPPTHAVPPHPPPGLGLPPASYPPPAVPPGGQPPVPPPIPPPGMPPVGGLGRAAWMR
row,SMILES,IC50 [nM]
1,"N#Cc1cnc2c(c1)ncn2[C@H]1CCC[C@@H](Nc2ncc(C#N)c(-c3cnn(CC4CC4)c3)n2)C1 [Example 69, 3-((1S,3R)-3-((5-Cyano-4-(1-(cyclopropylmethyl)-1H-pyrazol-4-yl)pyrimidin-2-yl)amino)cyclohexyl)-3H-imidazo[4,5-b]pyridine-6-carbonitrile]",< 50
2,"N#Cc1cnc2c(c1)ncn2[C@H]1CCC[C@@H](Nc2ncc(C#N)c(-c3cnn(CCF)c3)n2)C1 [Example 70, 3-((1S,3R)-3-((5-Cyano-4-(1-(2-fluoroethyl)-1H-pyrazol-4-yl)pyrimidin-2-yl)amino)cyclohexyl)-3H-imidazo[4,5-b]pyridine-6-carbonitrile]",< 50
3,"N#Cc1cnc2c(c1)ncn2[C@H]1CCC[C@@H](Nc2ncc(C#N)c(-c3cnn(C4CC4)c3)n2)C1 [Example 71, 3-((1S,3R)-3-((5-Cyano-4-(1-cyclopropyl-1H-pyrazol-4-yl)pyrimidin-2-yl)amino)cyclohexyl)-3H-imidazo[4,5-b]pyridine-6-carbonitrile]",< 50
4,"CC(C)n1cc(-c2nc(N[C@@H]3CCC[C@H](n4cnc5cc(C#N)cnc54)C3)ncc2C#N)cn1 [Example 72, 3-((1S,3R)-3-((5-Cyano-4-(1-isopropyl-1H-pyrazol-4-yl)pyrimidin-2-yl)amino)cyclohexyl)-3H-imidazo[4,5-b]pyridine-6-carbonitrile]",< 50
5,"CCn1cc(-c2nc(N[C@@H]3CCC[C@H](n4cnc5cc(C#N)cnc54)C3)ncc2C#N)cn1 [Example 73, 3-((1S,3R)-3-((5-Cyano-4-(1-ethyl-1H-pyrazol-4-yl)pyrimidin-2-yl)amino)cyclohexyl)-3H-imidazo[4,5-b]pyridine-6-carbonitrile]",< 50

# Continued, values first:
row,IC50 [nM],SMILES
1,< 50,"N#Cc1cnc2c(c1)ncn2[C@H]1CCC[C@@H](Nc2ncc(C#N)c(-c3cnn(C4CCOCC4)c3)n2)C1 [Example 63, 3-((1S,3R)-3-((5-Cyano-4-(1-(tetrahydro-2H-pyran-4-yl)-1H-pyrazol-4-yl)pyrimidin-2-yl)amino)cyclohexyl)-3H-imidazo[4,5-b]pyridine-6-carbonitrile]"
2,< 50,"Cn1cc(-c2nc(N[C@@H]3CCC[C@H](n4cnc5cc(C#N)cnc54)C3)ncc2C#N)cn1 [Example 64, 3-((1S,3R)-3-((5-Cyano-4-(1-methyl-1H-pyrazol-4-yl)pyrimidin-2-yl)amino)cyclohexyl)-3H-imidazo[4,5-b]pyridine-6-carbonitrile]"
3,< 50,"N#Cc1cnc2c(c1)ncn2[C@H]1CCC[C@@H](Nc2ncc(C#N)c(-c3cnn(-c4ccccc4)c3)n2)C1 [Example 65, 3-((1S,3R)-3-((5-Cyano-4-(1-phenyl-1H-pyrazol-4-yl)pyrimidin-2-yl)amino)cyclohexyl)-3H-imidazo[4,5-b]pyridine-6-carbonitrile]"
4,< 50,"N#Cc1cnc2c(c1)ncn2[C@H]1CCC[C@@H](Nc2ncc(C#N)c(-c3cnn(C4COC4)c3)n2)C1 [Example 66, 3-((1S,3R)-3-((5-Cyano-4-(1-(oxetan-3-yl)-1H-pyrazol-4-yl)pyrimidin-2-yl)amino)cyclohexyl)-3H-imidazo[4,5-b]pyridine-6-carbonitrile]"
5,< 50,"CC(O)Cn1cc(-c2nc(N[C@@H]3CCC[C@H](n4cnc5cc(C#N)cnc54)C3)ncc2C#N)cn1 (stereo partly drawn) [Example 67, 3-((1S,3R)-3-((5-Cyano-4-(1-(2-hydroxypropyl)-1H-pyrazol-4-yl)pyrimidin-2-yl)amino)cyclohexyl)-3H-imidazo[4,5-b]pyridine-6-carbonitrile]"
6,< 50,"N#Cc1cnc2c(c1)ncn2[C@H]1CCC[C@@H](Nc2ncc(C#N)c(-c3cnn(CCO)c3)n2)C1 [Example 68, 3-((1S,3R)-3-((5-Cyano-4-(1-(2-hydroxyethyl)-1H-pyrazol-4-yl)pyrimidin-2-yl)amino)cyclohexyl)-3H-imidazo[4,5-b]pyridine-6-carbonitrile]"

# Reference: US20250353842A1, “BICYCLIC AMINE CDK12 INHIBITORS” (Incyte Corporation, priority 2022, published 2025)
